Reference: patent US10414721B1, “Inhibitor of endocannabinoid cellular reuptake” (University of Bern, priority 2018, dated 2019)

Assays:
[1] = Microsomal clearance, human liver microsomes; assay type: in vitro ADME
Description: Human or mice microsome clearance experiment were carried out as according to a previously describe protocol. Briefly, microsome preparation (0.5 mg/mL) plus cofactor NADPH solution was incubated with 1 μM of WOBE437 in 96-well plates at 37° C. After 1, 3, 6, 9, 15, 25, 35 and 45 min, 40 μL of the preparation was transferred and quenched with 3:1 (v/v) acetonitrile containing internal standards. Samples were then cooled and centrifuged before analysis by LC-MS/MS. Log peak area ratios (test compound peak area/internal standard peak area) are plotted against incubation time using a linear fit. The calculated slope is used to determine the intrinsic clearance. Data are obtained from single experiments measured with multiple time-points.

BALB/c mice = assay: Complete Freund's adjuvant induced monoarthritis; assay type: in vivo, mouse
Description: BALB/c mice were anesthetized with xylazine/ketamine (5 and 10 mg/kg, respectively) and subsequently monoarthritis was induced by intra-articular injection of complete Freund's adjuvant (CFA, 40 μL; Sigma-Aldrich, St. Louis, USA) into the right knee joint. The inflammation was allowed to develop for 14 days prior to pharmacological treatments starting at day 15 for 1 or 3 days, respectively. Mechanical sensitivity (allodynia) and knee diameter (edema) were evaluated 1 h post treatment in the ipsilateral and contralateral knees. Articular sensitivity was evaluated using a digital algometer (Bioseb, USA). […] A cut-off force of 300 g was considered to avoid damage in the tissue. The measurements were done in triplicates and the average was considered for the statistical analysis. To evaluate the degree of inflammation, knee diameter was measured in both extremities using a digital micrometer (Mitutoyo, USA). WOBE437 was administered at doses of 2.5, 5 or 10 mg/kg, either as single dose or for 3 days treatment. To evaluate the involvement of CB1 and CB2 receptors, TRPV1 and PPARγ, rimonabant (5 mg/kg, CB1 receptor antagonist/inverse agonist), SR144528 (3 mg/kg, CB2 receptor antagonist/inverse agonist; Cayman Chemical, USA), capsazepine (5 mg/kg, TRPV1 antagonist; Tocris Bioscience, UK) and GW9662 (3 mg/kg, PPARγ antagonist; Tocris Bioscience, UK) were injected 30 min before WOBE437 administration. Indomethacin (5 mg/kg; Sigma-Aldrich, USA) was used as a reference drug (positive control). For all the compounds, dimethylsulfoxide (DMSO) was used as vehicle (20 μL, i.p.).

mice = assay: Formalin test; assay type: in vivo, mouse; conditions: comparable to indomethacin (5 mg/kg)
Description: WOBE437 was initially assessed in a battery of four individual tests typically associated with CB1 receptor activation in mice (nociception, locomotion, body temperature and cataleptic behavior), collectively referred to as the “tetrad”. Dose-response experiments identified 10 mg/kg as the lowest dose to elicit a moderate but complete tetrad in BALB/c mice upon intraperitoneal (i.p.) administration (FIGS. 3A-D). […] To assess whether the WOBE437-induced effects were CB1 receptor-mediated, mice were pre-treated with the selective antagonist/inverse agonist rimonabant (SR1). […] These experiments provided a proof-of-concept for the mechanism of action of WOBE437 as a novel “indirect CB1 receptor agonist”. In subsequent studies, the effects of WOBE437 in pain, inflammatory and anxiety models were investigated. […] Both effects were reversed by SR1.
WOBE437 and RX-055 were tested in independent laboratories, in different mouse strains and in multiple (behavioral) models for cannabimimetic, analgesic, anti-inflammatory and anxiolytic-effects in wild-type and phenotypical CB1-KO mice as described in Chicca 2017.

ABHD12 = target: T1, ABHD12 (Mus musculus, UniProt Q99LR1); assay: ABHD12 activity (ABPP and radioactivity-based hydrolytic assays); assay type: biochemical; conditions: ABPP in mouse brain homogenate and hydrolytic assays
T1 construct: membrane preparations obtained from mouse brains; from tissue; host or cells: mouse brain membranes
T1 sequence (Q99LR1 whole entry): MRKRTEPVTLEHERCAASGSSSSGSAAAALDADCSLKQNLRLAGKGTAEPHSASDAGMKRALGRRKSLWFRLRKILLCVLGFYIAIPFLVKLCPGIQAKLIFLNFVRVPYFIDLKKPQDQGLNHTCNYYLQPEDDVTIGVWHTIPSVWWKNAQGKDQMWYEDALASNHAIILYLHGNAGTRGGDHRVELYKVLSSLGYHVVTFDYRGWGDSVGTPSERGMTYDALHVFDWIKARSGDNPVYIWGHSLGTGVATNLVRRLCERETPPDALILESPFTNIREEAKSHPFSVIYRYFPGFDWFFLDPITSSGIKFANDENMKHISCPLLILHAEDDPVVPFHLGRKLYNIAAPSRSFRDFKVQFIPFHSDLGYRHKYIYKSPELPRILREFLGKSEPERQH
Description: ABPP experiments were performed using membrane preparations obtained from mouse brains as described earlier.
FAAH, ABHDs, MAGL and COX-2 activity assays were performed using cell homogenates, human recombinant enzymes and mouse, rat and pig brain homogenates as previously described.

[2] = LC-MS/MS quantification of WOBE437 in tissues after i.p. injection; assay type: in vivo, mouse; design: highest concentration in brain: unit not given here
Description: In order to investigate whether there was a link between the in vivo pharmacological effects of WOBE437 and the inhibition of EC uptake in vitro, the levels of WOBE437, AEA, 2-AG and related lipids in different tissues were quantified by LC-MS/MS. […] The Cbrain/Cplasma ratio (Kp) of WOBE437 was 0.65 after 5 min, 1.64 after 15 min and reached 1.9 after 30 and 60 min (FIGS. 4A and 4E). The peak concentration of WOBE437 in the brain was 780±267 nM, thus being in line with the bioactive concentrations determined in cellular assays. […] Only at 15 min post-injection, WOBE437 prevented the moderate increase of 2-AG induced by DMSO (FIG. 4C). […] On the contrary, 2-AG levels increased 1.7-fold compared to vehicle at 1 h post-injection (FIG. 4G). […] Repeated administrations of WOBE437 led to a significant 3-fold increase of corticosterone in the brain, which mirrors the changes observed in plasma (FIG. 4H). In peripheral organs, WOBE437 reached peak concentrations of 5-20 nmol/g tissue, without any signs of accumulation over 7 days. […] However, EC concentrations were not affected by repeated administrations of WOBE437 in peripheral tissues. Again, corticosterone levels were increased in spleen, liver and kidney.
WOBE437, AEA, 2-AG, other lipids and hormones were quantified by LC-MS/MS in different biological matrices (cells, human whole blood, rodent tissues) as reported in Chicca 2017.

CCCCCCC/C=C/C=C/C(=O)NCCc1ccc(OC)c(OC)c1 [WOBE437, (2E,4E)-N-[2-(3,4-Dimethoxyphenyl)ethyl]dodeca-2,4-dienamide]
clearance ([1]; 1 μM, preliminary): 0.657 mL/min/kg | bioavailability at 1 μM ([1]; human, humans, from microsomal clearance, read-out: estimated maximal bioavailability): 4% | antiallodynia and antiinflammatory effects after rimonabant, SR144528 or GW9662 pre-treatment (BALB/c mice; 10 mg/kg i.p., 3 days): fully abolished | reduction of inflammation (edema) (BALB/c mice; 10 mg/kg i.p., 3 days): 58% | reduction in allodynia (BALB/c mice; 10 mg/kg i.p., 3 days, as compared to contralateral knee): 52% | knee diameter (BALB/c mice; 10 mg/kg i.p., 3 days, vehicle 6.5±0.9, contralateral 4.5±0.3): 5.3±0.4 mm | allodynia after single dose (BALB/c mice; 10 mg/kg i.p., single dose): significantly decrease allodynia | antiallodynia effect after SR144528 (3 mg/kg) or capsazepine (5 mg/kg) pre-treatment (BALB/c mice; 10 mg/kg i.p., single dose): completely prevented | antiallodynia effect after rimonabant or GW9662 pre-treatment (BALB/c mice; 10 mg/kg i.p., single dose): did not block | allodynia and edema (BALB/c mice; 2.5 and 5.0 mg/kg i.p.): did not show any significant changes | inflammatory pain and paw thickness (mice): reduced inflammatory pain and paw thickness | inhibition of ABHD12 (ABHD12): did not inhibit | peak concentration in the brain ([2]; 10 mg/kg i.p.): 780 ± 267 nM | peak concentrations in peripheral organs ([2]; 10 mg/kg i.p.): 5-20 nmol/g tissue | peak plasma concentration ([2]; 10 mg/kg i.p.): 492±103 | time of highest brain concentration ([2]; 10 mg/kg i.p.): 30 min | time of peak plasma concentration ([2]; 10 mg/kg i.p.): 15 min | brain concentration ([2]; 10 mg/kg i.p., 1 h): 652±165 pmol/g brain | Cbrain/Cplasma ratio (Kp) ([2]; 10 mg/kg i.p., after 15 min): > 1 | highest concentration in brain ([2]; 10 mg/kg i.p., after 30 min): 919±314 | concentration at 1 h ([2]; mouse, brain, ip, 1 h after a single injection, 10 mg/kg i.p., read-out: estimated brain concentration): 555 nM | concentration at 7 days ([2]; mouse, brain, ip, after 7 days of treatment, 10 mg/kg i.p. daily, read-out: estimated brain concentration): 926 nM | Kp at 1 h ([2]; mouse, brain/plasma, ip, 10 mg/kg, 10 mg/kg i.p., after 30 and 60 min, read-out: Cbrain/Cplasma ratio (Kp)): 1.9 | Kp at 5 min ([2]; mouse, brain/plasma, ip, 10 mg/kg, 10 mg/kg i.p., after 5 min, read-out: Cbrain/Cplasma ratio (Kp)): 0.65 | Kp at 0.25 h ([2]; mouse, brain/plasma, ip, 10 mg/kg, 10 mg/kg i.p., after 15 min, read-out: Cbrain/Cplasma ratio (Kp)): 1.64 | half-life ([2]; mouse, plasma, ip, 10 mg/kg i.p.): 3.38 h
